Measurements: patent US9381208B2, “Structure and use of 5′ phosphate oligonucleotides” (Rheinische Friedrich-Wilhelms-Universität, priority 2006, dated 2016)

Tests used:
PBMC = assay: IFN-α in PBMC transfected with chemically synthesized 5′ triphosphate RNA (ELISA); type: cell-based, human; details: oligonucleotide alone, 0.2 μg, 24 hours
Experimental: PBMC were transfected with chemically synthesized single-strand oligonucleotides alone or together with their complementary antisense strand (AS) by using Lipofectamine and incubated in the presence or absence of chloroquine (Chl). CpG2331 was used as a positive and chloroquine-sensitive control for IFN-α induction in PBMC.
The isRNA9.2 (Hornung V et al. (2005) Nat Med 11(3):263-70) generated by in vitro transcription was used a positive control (IVT2-3PRNA). CpG2331 is a TLR9 ligand. PBMC (400,000 cells per well) were transfected with oligonucleotides by using Lipofectamin (0.5 μl, 0.2 μg oligonucleotide). Hybridization of complementary strands was performed by heating 4 μg total RNA in 20 μl of buffer (final 50 mM Tris/HCl pH7.5 100 mM NaCl) up to 70° C. followed by cooling down to 40° C. Chloroquine was used to block TLR-mediated nucleic acid recognition (2.5 μg/ml).

human primary monocytes = assay: IFN-α production in human primary monocytes transfected with RNA (ELISA); type: cell-based; details: 200 ng RNA transfected, 24 hours, ELISA
PDC = assay: IFN-α production in human PDC (ELISA); type: cell-based; details: 24 hours
Experimental: Human PBMC were prepared from whole blood donated by young healthy donors by Ficoll-Hypaque density gradient centrifugation (Biochrom, Berlin, Germany). PDC were isolated by MACS using the blood dendritic cell Ag (BCDA)-4 dendritic cell isolation kit from Miltenyi Biotec (Bergisch-Gladbach, Germany). Briefly, PDC were labelled with anti-BDCA-4 Ab coupled to colloidal paramagnetic microbeads and passed through a magnetic separation column twice (LS column, then MS column; Miltenyi Biotec). The purity of isolated PDC (lineage-negative, MHC-II-positive and CD123-positive cells) was above 95%. Before isolation of monocytes, PDC were depleted by MACS (LD column; Miltenyi Biotec) and then monocytes were isolated using the monocyte isolation kit II (Miltenyi Biotec). […] PDC cultures were additionally supplemented with 10 ng/ml IL-3 (R&D Systems). […] Vero (African green monkey kidney) and HEK 293T (human embryonic kidney) cells were maintained in Dulbecco's modified Eagle's medium supplemented with antibiotics and 5% or 10% foetal calf serum, respectively. BSR cells were propagated in Glasgow minimal essential medium supplemented with 10% newborn calf serum, phosphate broth, amino acids and antibiotics.
Human IFN-α was assessed in cell culture supernatants using the IFN-α module set (Bender MedSystems, Graz, Austria). The murine IP-10 ELISA was from Biosource (Solingen, Germany), the murine IFN-[…] ELISA was from PBL Biomedical Laboratories (Piscataway, USA). All ELISA procedures were performed, according to manufacturers' recommendations.

[1] = Blood cell counts (leucocytes, platelets) after injection; type: in vivo, C57BL/6 mice; details: 50 μg, 48 hours
Experimental: (b & c) C57BL/6 mice were injected with 50 μg 3p-2.2 complexed with jetPEI™. Blood was collected after 48 h and processed as EDTA […] for measurement of leucocytes (WBC) and platelets. Blood cell counts were performed at the Central Laboratory of the Department of Internal Medicine, University of Munich at the indicated time point (P**<0.01 between the platelet count of 3p-2.2 and CpG). Data are shown as means±SEM of 2 independent experiments.

[2] = system: B16 melanoma lung metastases; assay: B16 melanoma lung metastases model; type: in vivo; details: C57BL/6 mice, 50 μg complexed with jetPEI intravenously on day 3, 6 and 9, day 14, compared with PolyA
Experimental: (a) Therapeutic regimen: Mice were challenged with 4×10^5 B16 melanoma cells intravenously to experimentally induce lung metastases on day 0. Mice were treated intravenously with the indicated nucleic acid complexed to jetPEI™ on day 3, 6 and 9 as indicated. 14 days after challenge, the number of macroscopically visible melanoma metastases on the surface of the lungs was counted with the help of a dissecting microscope or the lung weight was calculated.
(b) Groups of five C57BL/6 mice were challenged with 4×10^5 B16 and treated as described. Mice were treated intravenously on day 3, 6 and 9 with 50 μg of OH-2.2, 50 μg 3p-2.2, 50 μg 3p-GC (a nonspecific double-stranded 3p-RNA) or 50 μg CpG oligonucleotide ligand, each complexed with jetPEI™. Control groups received 100 μl of Glucose 5% or 50 μg of PolyA complexed with jetPEI™. Tumor growth was assessed after 14 days by measuring the weight of the lungs. Shown are lung weights of five individual mice. The mean lung weight is indicated by a column. […]
For the induction of lung metastases we injected 4×10^5 B16 melanoma cells into the tail vein of the indicated mice. […] 14 days after challenge the number of macroscopically visible melanoma metastases on the surface of the lungs was counted with the help of a dissecting microscope or, in case of massive tumor load, lung weight was determined. […]

thrombocytopenia [1] | Substance | IFN-α induction in PBMC (PBMC) | IFN-α production in monocytes (human primary monocytes) | IFN-α production in PDC (PDC) | lung metastases [2]
– | 5′-pppAGCUUAACCUGUCCUUCAA-3′ [9.2s (IVT)] | induced IFN-α | strongly induced IFN-α production | produced IFN-α | –
more apparent | 5′-TCCATGACGTTCCTGACGTT-3′ [CpG 1826] | – | – | – | significant reduction of lung metastases, but to a lesser extent than 3p-2.2
